As a reminder, the IC50 is the concentration that gives 50% inhibition.

Molecules are shown by their SMILES.

Consider 20 compounds from US9493420B2, “Quinoline derivatives and uses thereof” (Portland State University, priority 2005, dated 2016).

For one series, the system named is P. falciparum strain Dd2. The conditions noted are these: cited from earlier work. Further: key: S = sensitive; R = resistant; S/R = intermediate level of resistance.
Series [1] concerns P. falciparum strain FCR3. The conditions noted are these: cited from earlier work. Further: key: S = sensitive; R = resistant; S/R = intermediate level of resistance.
A further series concerns P. falciparum strain D6. The conditions noted are these: cited from earlier work. Further: key: S = sensitive; R = resistant; S/R = intermediate level of resistance.
For series [2], the system named is P. falciparum strain TM91C235. As to conditions: cited from earlier work. Further: key: S = sensitive; R = resistant; S/R = intermediate level of resistance.
Another series concerns P. falciparum strain W2. The conditions noted are these: cited from earlier work. Further: key: S = sensitive; R = resistant; S/R = intermediate level of resistance.
Series [3] concerns D6 (CQ^S) P. falciparum strain. Description: In vitro fluorescence (Sybr Green I) growth inhibition assay, D6 strain. As to conditions: Plasmodium falciparum, D6; Table 13; growth inhibition; read-out: IC50 (nM) D6 (CQ^S). It counts as cell-based. An excerpt: (§1) One exemplary method for measuring inhibitory effects of RCQ compound in vitro has been reported by Smilkstein et al. (Antimicrob. Agents Chemother., 48(5):1803-1806, 2004). This method employs fluorescent detection of the level of parasitemia in cultured red blood cells and can be automated for high-throughput screening of antimalarial RCQs. This exemplary method allows the inhibitory agent (such as a RCQ) to be in contact with the parasite for an entire developmental cycle without purine starvation, which is in contrast to the traditional ^3H-hypoxanthine method (Desjardins et al., Antimicrob. Agents Chemother., 16(6):710-718, 1979). Briefly, to perform the Smilkstein et al. method, an initial parasitemia of approximately 0.2% is attained by adding uninfected red blood cells (RBCs) to a stock culture of Plasmodium sp.-infected RBCs. […] After a period of incubation (such as about 72 hours), a sufficient amount (e.g., 100 μL) of a fluorescent DNA binding dye-detergent mixture (e.g., Sybr Green I dye-detergent mixture) to lyse cells and bind to DNA is added to the reactions. Because uninfected RBCs have no DNA, only parasite DNA (in infected RBCs) is available for binding to the fluorescent dye (e.g., Sybr Green I). Samples are then incubated in the dark for a period of time (e.g., one hour), followed by measurement of levels of fluorescence. For Sybr Green I, excitation and emission wavelength are 485 and 530 nm, respectively. Fluorescence readings, which represent the amount of parasite DNA in the sample, can be plotted against the Log [drug] and fit to a curve by nonlinear regression to obtain the IC50 value for the tested compound.
(§2) An in vitro fluorescence assay for determining IC50 of antimalarial drugs was performed as previously described by Smilkstein et al. (Antimicrob. Agents Chemother., 48(5):1803-1806, 2004). This relatively low-cost procedure can be automated for high-throughput screening of the antimalarial activities of RCQs described herein. Advantageous, this method also allows the tested agent (e.g, a RCQ) to be in contact with the parasite for an entire developmental cycle without purine starvation (which occurs with the commonly used ^3H-hypoxanthine method; see, e.g., Desjardins et al., Antimicrob. Agents Chemother., 16, (6):[…], 1979).
(§3) Briefly, an initial parasitemia of approximately 0.2% was attained by addition of uninfected red blood cells to a stock culture of cells infected with Dd2 (CQ^R) or D6 (CQ^S) P. falciparum strains. A 10 mM RCQ_02 solution (in DMSO) was prepared. RCQ_02 (at a final concentration from 10^−11 to 10^−4 M) and infected red blood cells (at a final concentration of 2% (v/v)) were mixed in 100 μL samples in individual wells of a 96-well plate. Each sample was prepared in triplicate. A triplicate set of reactions containing CQ (instead of RCQ_02) was included as a control. After a 72 hour incubation period, Sybr Green I dye-detergent mixture (100 μL) was added to each reaction. The samples were further incubated for an hour in the dark, and then placed in a 96-well fluorescence plate reader (Gemini-EM, […]) and analyzed with excitation and emission wavelength bands at 485 and 530 nm, respectively. Fluorescence readings were plotted against the Log [drug], and curve fitting performed by nonlinear regression to find the IC50 value.

For series [4], the system named is Dd2 (CQ^R) P. falciparum strain. The series is described as follows: In vitro fluorescence (Sybr Green I) growth inhibition assay, Dd2 strain. As to conditions: Plasmodium falciparum, DD2; Table 13; growth inhibition; read-out: IC50 (nM) Dd2 (CQ^R). It is filed as cell-based.
Excerpt: as §1, §2, §3

Series [5] has as its system mitogen-induced murine spleen lymphocytes. It is filed as cell-based. As to conditions: mouse spleen lymphocytes; for Cytotoxicity: LC50, 72 hours + 24 hours resazurin; for cytotoxicity values: Table 14. On the procedure: Mouse spleen lymphocytes were isolated from C57B1/6J mice by teasing tissues on a metallic sieve screen. […] Two hundred (200) μl isolated cells were then seeded in separate wells of a 96-well flat-bottom tissue culture plate at a density of 2×10^5 cells per well. […] After 72 hours incubation in a humidified atmosphere at 37° C. and 5% CO2, a solution of resazurin PBS was added to a final concentration 10 μM, and the plates were returned to the incubator for another 24 hours. Resazurin is a substrate which changes color in response to metabolic activity (such as, living cells). […] LC50 values were determined from plots of florescence versus drug concentration using non-linear regression by Prism software.

For series [6], the system named is W2 (CQ^R) P. falciparum strain. Description: In vitro fluorescence (Sybr Green I) growth inhibition assay, W2 strain. The conditions noted are these: Plasmodium falciparum, W2; Table 13; growth inhibition; read-out: IC50 (nM) W2 (CQ^R). It counts as cell-based.
Series [7] concerns the target T1, recombinant human norepinephrine (hNET) transporter (Homo sapiens, UniProt P23975).
T1 construct: expressed in transfected cells; host or cells: HEK cells expressing hNET
Description: Inhibition of [3H]neurotransmitter uptake, hNET. It counts as cell-based. Here is the method: (§4) Selected RCQs were tested for inhibition of [^3H]neurotransmitter uptake by the recombinant human serotonin (hSERT), dopamine (HEK-hDAT), and norepinephrine (hNET) transporters by a modification of the method of Eshleman et al. (J. Pharmacol. Exp. Ther., 289(2):877-885, 1999). HEK-hDAT, hSERT, and -hNET expressing cells were grown on tissue culture dishes. After removing the medium and washing the plates with Ca^2+-, Mg^2+-free phosphate buffered saline (PBS), fresh medium was added and the plates were placed in a 25° C. water bath for 5 minutes. Cells were gently lifted from the plates and cell clusters separated by trituration. 50 μL aliquots of the suspended cells were added to assay tubes containing drugs and Krebs-HEPES assay buffer in a final volume of 0.5 mL.
(§5) Competition experiments were conducted in triplicate. After a 10 minute preincubation period at 25° C., [^3H]neurotransmitter (20 nM final concentration; [^3H]DA, [^3H]5-HT, or [^3H]NE) were added, and the mixtures incubated for 10 minutes. Reactions were terminated by filtration through Wallac filtermat A filters (presoaked in 0.05% polyethylenimine), using a Tomtec cell harvester. Scintillation fluid was added to each filtered spot, and radioactivity remaining on the filters determined using a Wallac 1205 Betaplate scintillation counter.
(§6) Specific uptake was defined as the difference in uptake observed in the absence and presence of 5 μM mazindol (hDAT and hNET) or 5 μM imipramine (hSERT). Inhibition of uptake was determined by non-linear regression using Prism software.

Series [8] deals with T2, recombinant human serotonin (hSERT) transporter (Homo sapiens, UniProt P31645).
T2 construct: expressed in transfected cells; host or cells: HEK cells expressing hSERT
T2 sequence (P31645 whole entry): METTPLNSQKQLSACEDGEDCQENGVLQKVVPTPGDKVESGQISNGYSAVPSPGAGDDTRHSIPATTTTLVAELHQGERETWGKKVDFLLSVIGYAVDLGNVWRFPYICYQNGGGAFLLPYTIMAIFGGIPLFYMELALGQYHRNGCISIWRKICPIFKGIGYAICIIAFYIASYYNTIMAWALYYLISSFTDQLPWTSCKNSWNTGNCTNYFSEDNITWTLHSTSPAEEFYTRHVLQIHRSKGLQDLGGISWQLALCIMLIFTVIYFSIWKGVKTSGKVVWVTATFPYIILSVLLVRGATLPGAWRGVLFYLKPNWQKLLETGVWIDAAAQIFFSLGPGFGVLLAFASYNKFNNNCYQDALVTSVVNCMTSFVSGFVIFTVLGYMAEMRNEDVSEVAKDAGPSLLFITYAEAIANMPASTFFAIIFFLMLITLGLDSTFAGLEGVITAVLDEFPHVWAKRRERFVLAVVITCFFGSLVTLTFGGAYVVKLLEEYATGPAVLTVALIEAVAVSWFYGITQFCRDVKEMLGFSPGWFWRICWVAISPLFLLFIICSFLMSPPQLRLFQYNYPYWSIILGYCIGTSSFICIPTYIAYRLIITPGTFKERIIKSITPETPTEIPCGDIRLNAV
The series is described as follows: Inhibition of [3H]neurotransmitter uptake, hSERT. It counts as cell-based. On the procedure:
as §4, §5, §6

Series [9] concerns the target T3, recombinant human dopamine (HEK-hDAT) transporter (Homo sapiens, UniProt Q01959).
T3 construct: expressed in transfected cells; host or cells: HEK cells expressing hDAT (HEK-hDAT)
The series is described as follows: Inhibition of [3H]neurotransmitter uptake, hDAT. It is filed as cell-based. Here is the method: as §4, §5, §6

T3 sequence (Q01959 whole entry): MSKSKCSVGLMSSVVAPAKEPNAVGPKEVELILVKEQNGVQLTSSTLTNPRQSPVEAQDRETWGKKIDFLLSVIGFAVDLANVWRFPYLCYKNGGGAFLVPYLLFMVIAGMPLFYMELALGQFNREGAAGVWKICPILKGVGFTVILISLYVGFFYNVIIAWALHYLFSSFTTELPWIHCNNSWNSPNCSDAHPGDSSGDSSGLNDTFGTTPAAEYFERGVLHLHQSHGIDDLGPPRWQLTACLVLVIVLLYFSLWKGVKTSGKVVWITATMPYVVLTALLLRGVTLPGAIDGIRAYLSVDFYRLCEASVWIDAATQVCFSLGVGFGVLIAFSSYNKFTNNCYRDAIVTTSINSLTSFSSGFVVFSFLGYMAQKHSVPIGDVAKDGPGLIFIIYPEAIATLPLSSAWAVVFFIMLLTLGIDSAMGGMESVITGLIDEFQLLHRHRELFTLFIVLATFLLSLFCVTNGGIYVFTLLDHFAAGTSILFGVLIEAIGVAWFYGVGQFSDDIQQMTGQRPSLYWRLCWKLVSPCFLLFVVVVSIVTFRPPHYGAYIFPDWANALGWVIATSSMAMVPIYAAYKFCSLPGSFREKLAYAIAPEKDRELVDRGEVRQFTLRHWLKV
T1 sequence (P23975 whole entry): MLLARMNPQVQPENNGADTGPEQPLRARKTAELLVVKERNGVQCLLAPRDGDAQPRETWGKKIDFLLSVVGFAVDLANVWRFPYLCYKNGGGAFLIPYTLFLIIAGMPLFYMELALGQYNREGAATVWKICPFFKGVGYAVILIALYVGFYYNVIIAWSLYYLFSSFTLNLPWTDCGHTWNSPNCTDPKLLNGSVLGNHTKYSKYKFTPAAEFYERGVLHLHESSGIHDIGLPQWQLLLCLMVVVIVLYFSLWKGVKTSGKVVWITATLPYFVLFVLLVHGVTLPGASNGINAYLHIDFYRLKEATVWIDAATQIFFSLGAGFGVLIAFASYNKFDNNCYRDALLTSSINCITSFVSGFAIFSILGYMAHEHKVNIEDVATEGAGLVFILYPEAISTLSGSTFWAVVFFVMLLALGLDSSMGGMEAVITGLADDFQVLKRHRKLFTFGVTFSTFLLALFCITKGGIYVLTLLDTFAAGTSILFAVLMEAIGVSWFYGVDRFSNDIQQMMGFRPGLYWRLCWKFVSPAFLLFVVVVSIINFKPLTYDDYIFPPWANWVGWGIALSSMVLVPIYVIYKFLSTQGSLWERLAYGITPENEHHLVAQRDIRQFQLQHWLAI

`COc1ncnc(NS(=O)(=O)c2ccc(N)cc2)c1OC` [Sulfadoxine]: in the series on P. falciparum strain Dd2, the “Drug susceptibility, strain Dd2” value is listed as “S”. Also, the “Drug susceptibility, strain FCR3” value in [1] was “S”. Further, in the series on P. falciparum strain D6, the “Drug susceptibility, strain D6” value is on record as “S”. Further, the “Drug susceptibility, strain TM91C235” value in series [2] was “R”. Also, in the series with P. falciparum strain W2, the “Drug susceptibility, strain W2” value is “R”.

On to `Clc1ccc2c(N3CCN(CCN(Cc4ccccc4)Cc4ccccc4)CC3)ccnc2c1` [RCQ_351], for which the IC50 was found to be 141 nM in series [3] and 164 nM in series [4].

Turning to `OC(c1cc(C(F)(F)F)nc2c(C(F)(F)F)cccc12)C1CCCCN1` (stereo not shown) [Mefloquine], the “Drug susceptibility, strain Dd2” value with P. falciparum strain Dd2 is listed as “R”. For the same compound, in [1], the “Drug susceptibility, strain FCR3” value was “S”. Besides, the “Drug susceptibility, strain D6” value in the series on P. falciparum strain D6 is “S/R”. The “Drug susceptibility, strain TM91C235” value in series [2] is “R”. For the same compound, the “Drug susceptibility, strain W2” value in the series with P. falciparum strain W2 is “S”.

`Clc1ccc2c(NCCCNCCCCN(Cc3ccccc3)Cc3ccccc3)ccnc2c1` [RCQ_26]: the results for the IC50 in series [3] and in series [4] were 7.6 nM and 10.6 nM, respectively.

Regarding `CN(CCCN1c2ccccc2CCc2ccccc21)CCNc1ccnc2cc(Cl)ccc12` [RCQ_33], the “Cytotoxicity” value in series [5] turned out to be 1400 nM. Further, the IC50 was found to be 8.1 nM in series [3], 9.3 nM in series [4] and 9.3 nM in series [6].

As to `Clc1ccc2c(NCCCN3CCC(=C4c5ccccc5C=Cc5ccccc54)CC3)ccnc2c1` [RCQ_42], in series [5], the “Cytotoxicity” value stood at 1100 nM. The IC50 came out at 2.1 nM in [3] and 1.8 nM in series [4].

`CCN1CCN(c2ccnc3cc(Cl)ccc23)CC1` [Q_38a]: the IC50 in [3] turned out to be 280 nM; in series [4], 400 nM.

With `Clc1ccc(C(c2ccccc2)N2CCN(CCNc3ccnc4cc(Cl)ccc34)CC2)cc1` (stereo not shown) [RCQ_32], the “Cytotoxicity” value in [5] was 1400 nM. Further, the values for the IC50 in series [3], in [4] and in series [6] were 2.6 nM, 3.4 nM and 3.4 nM, respectively.

For `Clc1ccc2c(NCCCN3CCCN(C4c5ccccc5-c5ccccc54)CC3)ccnc2c1` [RCQ_76], the IC50 came out at 550 nM in series [7]; 965 nM in series [8]; 21.1 nM in series [3]; 1080 nM in series [9]; 15.3 nM in series [4]. For the same compound, the “Cytotoxicity” value in [5] turned out to be 2500 nM.

Take `Clc1ccc2c(NCCCNCCCN(Cc3ccccc3)Cc3ccccc3)ccnc2c1` [RCQ_22]: in series [5], the “Cytotoxicity” value amounted to 700 nM and the cytotoxicity values amounted to 700 nM. The IC50 in series [3] stood at 45 nM. Further, the 50% inhibitory concentration (IC50) in series [4] turned out to be 79 nM.

Regarding `Fc1ccc(C(c2ccc(F)cc2)N2CCN(CCCNc3ccnc4cc(Cl)ccc34)CC2)cc1` [RCQ_37F2], the “Cytotoxicity” value in [5] is 4100 nM. Also, the IC50 in [3] is 15 nM; in series [4], 19 nM.

Take `Clc1ccc(C(c2ccccc2)N2CCN(CCCNc3ccnc4cc(Cl)ccc34)CC2)cc1` (stereo not shown) [RCQ_35]: the “Cytotoxicity” value in series [5] amounted to 800 nM. Also, the concentration for half-maximal inhibition (IC50) in series [3] was 4 nM; in [4], 6 nM; in series [6], 4 nM.

Regarding `Clc1ccc2c(NCCCN3CCCN(C(c4ccccc4)c4ccccc4)CC3)ccnc2c1` [RCQ_73], the concentration for half-maximal inhibition (IC50) in series [7] worked out at 660 nM; in series [8], 1160 nM; in series [3], 4.8 nM; in series [9] it was 1400 nM; in series [4], 4.1 nM. Further, in series [5], the “Cytotoxicity” value was 700 nM. The cytotoxicity values in series [5] amounted to 700 nM.

With `Clc1ccc(C(c2ccccc2)N2CCCN(CCCNc3ccnc4cc(Cl)ccc34)CC2)cc1` (stereo not shown) [RCQ_74], the “Cytotoxicity” value in series [5] was found to be 900 nM. Further, the IC50 was 15 nM in [3] and 9.8 nM in series [4].

Turning to `Clc1ccc2c(NCCCN3CCN(C(c4ccccc4)c4ccccc4)CC3)ccnc2c1` [RCQ_34], the “Cytotoxicity” value in series [5] is 1100 nM. The IC50 amounted to 2.4 nM in series [3], 3.7 nM in series [4] and 2.5 nM in [6].

Regarding `CC1(C)N=C(N)N=C(N)N1c1ccc(Cl)cc1` [Cycloguanil], the “Drug susceptibility, strain Dd2” value in the series on P. falciparum strain Dd2 is “S”. Further, in series [1], the “Drug susceptibility, strain FCR3” value is given as “S”. Further, in the series on P. falciparum strain D6, the “Drug susceptibility, strain D6” value is “S”. For the same compound, in the series with P. falciparum strain W2, the “Drug susceptibility, strain W2” value is “R”.

For `Clc1ccc2c(NCCN3CCCN(C4c5ccccc5-c5ccccc54)CC3)ccnc2c1` [RCQ_72], the “Cytotoxicity” value in series [5] is on record as 2500 nM. In addition, the IC50 in [3] is 9.2 nM; in [4], 9.6 nM.

In the case of `Clc1ccc2c(NCCN3CCCN(C(c4ccccc4)c4ccccc4)CC3)ccnc2c1` [RCQ_36], the “Cytotoxicity” value in series [5] was found to be 5300 nM. In series [5], the cytotoxicity values came out at 5300 nM. Besides, the values for the IC50 in [3] and in series [4] were 11.7 nM and 98 nM, respectively.

For the compound `C=C[C@H]1C[N@@]2CC[C@H]1C[C@H]2[C@H](O)c1ccnc2ccc(OC)cc12` [Quinine], in the series on P. falciparum strain Dd2, the “Drug susceptibility, strain Dd2” value is “R”. Besides, in series [1], the “Drug susceptibility, strain FCR3” value was “S”. The “Drug susceptibility, strain D6” value in the series on P. falciparum strain D6 is listed as “S”. In series [2], the “Drug susceptibility, strain TM91C235” value is reported as “R”. For the same compound, the “Drug susceptibility, strain W2” value in the series on P. falciparum strain W2 is “R”.

In the case of `Clc1ccc2c(NCCCNCCN(c3ccccc3)c3ccccc3)ccnc2c1` [RCQ_05(desMe)], the figures for the IC50 in series [3] and in series [4] were 36 nM and 27 nM, respectively.
